Laboratory results: US20250319206A1, “CRISPR/CAS GENE EDITING OF NEH4 AND/OR NEH5 DOMAINS IN NRF2” (Christina Care Gene Editing Institute, Inc., priority 2024, published 2025)

Columns and labels:
FaDu cells = settings: for viability after a single dose of Cisplatin: exon 4 edited, cisplatin 72 hours; for sensitivity to cisplatin: exon 4 targeting
T98G cells = assay: Chemosensitivity testing, CellTiter-Glo 2.0, T98G cells; assay type: cell-based, human; settings: increasing concentrations of temozolomide and doxorubicin, 72 hr
Description: FIG. 5A-D: Glioblastoma cells targeting exon 4 of NRF2 and assessment of chemotherapy response. T98G cells (FIG. 5A) and LN229 cells (FIG. 5B) were transfected with each respective gRNA. Genomic DNA from each cell population was isolated and amplified across exon 4 of the NRF2 gene. Amplicons were sanger sequenced and analyzed for indels at the CRISPR target site. Raw sequence files were aligned using the software program, DECODR, to display the indel pattern (listed as INDEL and frameshift %). (FIG. 5C-D) Chemosensitivity Testing in response to NRF2 targeting. Chemosensitivity was measured via CellTiter-Glo® 2.0 Assay. Untargeted and CRISPR targeted T98G cells were treated with increasing concentrations of (FIG. 5C) temozolomide or (FIG. 5D) doxorubicin for 72 hr. and then evaluated for cell viability. The average relative viability of cells normalized to the untreated Wt. was graphed. The error bars represent % CV.
Two human glioblastoma-derived cell lines were used to assess CRISPR activity and downstream effects of NRF2 knockout. FIG. 5 compares targeting exon 4 by two sgRNAs (sg76 (SEQ ID NO:16) and sg83 (SEQ ID NO:24)) and chemosensitivity assessment after targeting in both glioblastoma T98G and LN229 cell lines. Both cell lines were transfected using CRISPRmax lipofection with each respective gRNA and Cas9 mRNA. […]

[1] = system: NRF2 downstream target genes (NQO1, HMOX1, GCLC); assay: qPCR gene expression analysis of NRF2 and downstream targets in KYSE-410 cells; assay type: cell-based, Human; settings: for NQO1 expression (qPCR): vs wildtype unedited cells, without cisplatin exposure
Procedure: Total RNA was isolated from edited cells using TRIzol reagent and PureLink RNA Mini Kit (Thermo Fisher Scientific, Waltham, MA). Reverse transcription was conducted using the Applied Biosystems High-Capacity RNA-to-cDNA kit (Thermo Fisher Scientific, Waltham, MA). The cDNA was used as the template in the qPCR amplification of GAPDH (Fwd 5′ […]3′ (SEQ ID NO:76), Rev 5′[…]3′ (SEQ ID NO:77)), NRF2 (Fwd 5′[…]3′ (SEQ ID NO:78), Rev 5′[…]3′ (SEQ ID NO:79)), NQO1 (Fwd 5′[…]3′ (SEQ ID NO:80), Rev 5′[…]3′ (SEQ ID NO:81)), HMOX1 (Fwd 5′ […]3′ (SEQ ID NO:82), Rev 5′[…]3′ (SEQ ID NO:83)) and GCLC (Fwd 5′[…]3′ (SEQ ID NO:84), Rev 5′ […]3′ (SEQ ID NO:85)) transcripts using the SsoAdvanced universal SYBR Green Supermix (BioRad, Hercules, CA). The experiment was conducted at least twice with all samples run in duplicate at minimum. Relative expression levels of mRNA were calculated using the Livak method and normalized to the control. The data was plotted with the coefficient of variance.
For all gene editing studies from bench to bedside, it is important to employ a functional assay, accompanied by an internal functional control, to assess the efficiency of CRISPR/Cas activity. In this case, NRF2 is a transcription factor that controls the expression of over 200 genes. Thus, NRF2 disruption can be measured functionally through qPCR analysis of NQO1 expression, a keystone gene controlled by NRF2. NQO1 has been used as a standard measure of NRF2 activity in cancer cells^40. We also use downstream targets HMOX1 and GCLC, two major antioxidant enzymes, to assess NRF2 function.

NRF2 gene = NRF2 gene editing by Sanger sequencing/DECODR in A549 cells; assay type: cell-based, Human; settings: 72 hours after transfection
Description: FIG. 4A-C: Lung adenocarcinoma cells targeting Exon 3, 4, 5 of NRF2 and assessment of chemotherapy response. (FIG. 4A) A549 cells were transfected with each respective gRNA. Genomic DNA from each cell population was isolated and amplified across exon 3, 4 or 5 of the NRF2 gene. Amplicons were sanger sequenced and analyzed for indels at the CRISPR target site. The graph presents the total editing efficiency listed as Indel and frameshifting indel % listed as FS. (FIG. 4B) Raw sequence files from cells targeted with gRNA 76 or gRNA 83 were aligned using the software program, DECODR, to display the indel pattern (listed as INDEL and %). […] Viability was measured via bioreduction of MTS to a formazan product. […] The average relative viability of cells in response to cisplatin is graphed above.
To assess CRISPR activity across various exons of NRF2, several gRNAs were designed along exon 3, 4 and 5 of the NRF2 gene in the A549 cell line. The A549 cells were transfected with each individually designed gRNA and cells were collected 72 hours after transfection. Genomic DNA was isolated, PCR amplified and Sanger sequenced. Editing activity was quantified using DECODR to deconvolute the indels present in at the cut site of each gRNA. […]

| Substance | viability after a single dose of Cisplatin (FaDu cells) | sensitivity to cisplatin (FaDu cells) | sensitivity to treatment (T98G cells) | NQO1 expression (qPCR) [1] | NQO1 and GCLC expression ([1]; vs exon 2 (sg3) or exon 4 (sg76) targeted cells) | editing efficiency (comparison among gRNAs) (NRF2 gene) |
| --- | --- | --- | --- | --- | --- | --- |
| sg76: gRNA targeting exon 4 of NRF2; TCACTTGTTCCTGATATTCC CGG (guide TCACTTGTTCCTGATATTCCCGG; listed as DNA, chemistry not given here) | significant reduction in viability | enhanced sensitivity to cisplatin | increased sensitivity to treatment | significantly decreased |  |  |
| sg83: gRNA targeting exon 4 of NRF2; GTAGCCCCTGTTGATTTAGA CGG (guide GTAGCCCCTGTTGATTTAGACGG; listed as DNA, chemistry not given here) | significant reduction in viability | enhanced sensitivity to cisplatin | increased sensitivity to treatment | significantly decreased | lower levels of NQO1 and GCLC expression | highest editing efficiency |
